Residues, ends and D or L forms follow the SMILES beside them.
What was measured:
[1] = tested on: C57BL mice; test: Survival after ischemia induction (MI mice model); format: in vivo; details: 0.3 mg/kg 1 hour after ischemia induction; 7 days; 12 mice
Protocol: Mice were anesthetized (with a mixture of 100 mg/kg ketamine and 10 mg/kg xylazine), intubated and ventilated with air until spontaneous breathing commenced. The left anterior descending artery (LAD) was ligated with one single stitch, forming an ischemia that can be observed almost immediately. By closing the LAD, no further blood flow is permitted in that area, while the surrounding myocardial tissue is almost not affected. This surgical procedure imitates the pathobiological and pathophysiological aspects occurring in infarction-related myocardial ischemia.
Real time reverse transcriptase PCR (RT-qPCR) was conducted to identify the effect of a disclosed decoy peptide on TLR-mediated induction of the inflammatory cytokine TNF-α. The effect of an exemplary decoy peptide PM6 (0.3 mg/kg; administered 1 hour after MI induction) on TNF-α mRNA expression in mice myocardium was assessed 24 h and 7 days after ischemia induction.
On the other hand, 5 out of 12 untreated mice died, which accounts for a survival rate of 58% after ischemia for the untreated mice.

[2] = target: T1, TLR4 (Homo sapiens, UniProt O00206); test: FACS analysis of TLR4 expressed by macrophages exposed to LPS; format: cell-based; details: 10 μM
T1 construct: FACS analysis to test the expression of TLR4 protein by macrophages under LPS treatment; endogenous in cells; host or cells: human peripheral-blood monocytes differentiated into macrophages with M-CSF
Protocol: Flow cytometry is an analytical cell-biology technique that utilizes light to count and profile cells in a heterogenous fluid mixture. Flow cytometry analysis was used to evaluate binding of antibodies to TLR4 presenting cells. In this assay, an anti-TLR4 antibody was added to a monocytes suspension and cells which bound the antibody were visualized by a fluorescently labeled secondary antibody that bound to the anti-TLR4 antibody (Ab). Accordingly, samples were first “labeled” with the anti-TLR4 antibody, then incubated with Fluor® 488 conjugated to a secondary Ab for TLR4 (CD284) positive cells visualization.
In order to confirm the specificity of binding, and further in order to correct for non-specific or background staining, isotypes control mouse IgGs were added to cell suspensions at the same concentration as the anti-TLR4 Abs. To deduct the non-specific or background staining from the positive staining due to direct Ab binding to the antigen, the level of background staining was assessed by the use of the same fluorochrome as that used for staining the anti-TLR4 Ab.
Peripheral blood (30 ml) was obtained for the isolation of monocytes. Monocytes were purified by density gradient centrifugation as described above, and/or by adherence to plastic in RPMI 1640 medium supplemented with 10% fetal bovine serum (FBS) and antibiotics. Peripheral blood mononuclear cells (PBMCs) (10^6 cells/ml) were first seeded into 24-well plates (0.5 ml per well), after 2 hours, non-adherent cells were removed by several washes with warm PBS.
Monocytes freshly isolated either by density gradient centrifugation by adherence differentiated into macrophages in complete RPMI 1640 medium supplemented with human recombinant macrophage colony stimulating factor (100 ng/ml) for 6 days. To confirm macrophage cell lineage, direct immunostaining was performed with an antibody directed against CD11b/mac1 (Biolegend® Inc., San Diego, Calif., USA). Eighty percent (80%) of positive staining was observed by flow cytometry analysis. The proportion of TLR4 in this separated cell fraction was examined by FACS analysis using, as isotype control, mouse IgG2a IsoControl (eBioscience™ #53-4724-80), and mouse anti-human CD284 Alexa Fluor® 488 Clone FITA125 secondary Ab (Isotype IgG2a. eBioscience™ #53-9917-41), which recognizes the human TLR4 (also known as CD284) cell surface antigen. Cells were analyzed in a BC Gallios Flow Cytometer (Beckman Coulter, Indianapolis Ind., USA) and were initially gated on the basis of forward and side scatter characteristics. Kaluza Software was used to analyze the results. Results are expressed as mean fluorescence intensity (MFI) and also as normalized to control. […]

T1 sequence (O00206 24-839): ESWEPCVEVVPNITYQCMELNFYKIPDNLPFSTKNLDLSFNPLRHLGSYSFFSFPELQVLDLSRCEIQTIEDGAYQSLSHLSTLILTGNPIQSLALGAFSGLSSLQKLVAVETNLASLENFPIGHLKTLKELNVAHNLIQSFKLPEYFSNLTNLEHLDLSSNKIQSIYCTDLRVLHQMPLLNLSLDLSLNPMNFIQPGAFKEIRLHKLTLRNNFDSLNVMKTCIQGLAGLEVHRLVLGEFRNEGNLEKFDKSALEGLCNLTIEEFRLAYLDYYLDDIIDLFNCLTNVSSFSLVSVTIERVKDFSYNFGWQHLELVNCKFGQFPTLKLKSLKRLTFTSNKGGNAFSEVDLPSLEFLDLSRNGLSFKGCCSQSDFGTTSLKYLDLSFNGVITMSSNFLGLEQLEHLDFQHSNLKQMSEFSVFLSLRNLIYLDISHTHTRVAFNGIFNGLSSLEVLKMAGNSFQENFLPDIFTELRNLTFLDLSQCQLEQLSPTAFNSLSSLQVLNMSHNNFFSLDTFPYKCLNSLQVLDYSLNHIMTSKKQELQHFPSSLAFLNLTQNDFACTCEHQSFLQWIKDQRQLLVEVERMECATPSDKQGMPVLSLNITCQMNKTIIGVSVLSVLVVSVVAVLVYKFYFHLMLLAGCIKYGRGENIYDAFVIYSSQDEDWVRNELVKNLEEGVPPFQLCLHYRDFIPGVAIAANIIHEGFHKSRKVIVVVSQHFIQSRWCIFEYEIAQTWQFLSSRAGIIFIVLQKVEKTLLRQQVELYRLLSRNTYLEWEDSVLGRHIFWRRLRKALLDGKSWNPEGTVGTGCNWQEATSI

Compound | survival rate [1] | TLR4 expression level ([2]; 30 min before LPS (100 ng/ml or 20 μg/ml), 4 hours) | lowering the expression of TLR4 in the presence of LPS, compared with SEQ ID NO: 25 ([2]; low and high LPS)
CCCCCCCCNc1nc(=O)n(Cc2ccccc2)cc1C [PM6, 1-benzyl-5-methyl-4-(octylamino)pyrimidin-2(1H)-one] | 100% |  | 
CC[C@H](C)[C@H](NC(C)=O)C(=O)N[C@H](C(=O)N[C@@H](Cc1ccccc1)C(=O)N[C@@H](C)C(N)=O)C(C)C [SEQ ID NO:1, (2S,3S)-2-acetamido-N-((S)-1-(((S)-1-(((S)-1-amino-1-oxopropan-2-yl)amino)-1-oxo-3-phenylpropan-2-yl)amino)-3-methyl-1-oxobutan-2-yl)-3-methylpentanamide] (Ac-IVFA-NH2) |  | toward baseline levels | more effective
